Results reported in US20180177734A1, “PHARMACEUTICAL FORMULATIONS COMPRISING TENOFOVIR AND EMTRICITABINE” (priority 2015, published 2018).
Where two headings read alike, the source gives them in different places.

Conditions: 40° C./75% RH open, 60° C. closed

In the case of `CC(C)OC(=O)[C@H](C)N[P@](=O)(CO[C@H](C)Cn1cnc2c(N)ncnc21)Oc1ccccc1` [tenofovir alafenamide hemifumarate], the “rate of degradation of tenofovir alafenamide hemifumarate” value (in the presence of both emtricitabine and rilpivirine HCl) is reported as “further increased” and the “rate of degradation of tenofovir alafenamide hemifumarate” value (in the presence of emtricitabine) is reported as “increased”.
